Values quoted from earlier work, collected in US20060110441A1, “Lyophilized liposome formulations and method” (priority 2004, published 2006).
Converted amounts (≈) assume the structure as drawn.

Conditions: hydrated lipid

Compound | Tm, phase transition temperature [°C]
palmitoyl docosahexaenoyl PC | −27
CCCCCCCCCCCCCCCCCC(=O)OC[C@H](COP(=O)(O)OCCN)OC(=O)CCCCCCCCCCCCCCCCC [disteroyl phosphoethanolamine] | 74
CCCCCCCC/C=C\CCCCCCCC(=O)OC[C@H](COP(=O)(O)OCCN)OC(=O)CCCCCCC/C=C\CCCCCCCC [DOPE, dioleoyl phosphoethanolamine] | −16
CCCCCCCCCCCCCCCCCC(=O)OC[C@H](COP(=O)([O-])OCC[N+](C)(C)C)OC(=O)CCCCCCCCCCCCCCCCC [DSPC, distearoyl phosphatidylcholine] | 55
CCCCCCCC/C=C\CCCCCCCC(=O)OC[C@H](COP(=O)([O-])OCC[N+](C)(C)C)OC(=O)CCCCCCCCCCCCCCCCC [oleoyl stearyol PC, oleoyl stearoyl phosphatidylcholine] | 5 to 13
CCCCCCCCCCCCCCCCCC(=O)OC[C@H](COP(=O)(O)OCC(O)CO)OC(=O)CCCCCCCCCCCCCCCCC (some centres unmarked) [distereoyl PG] | 55
CCCCCCCC/C=C\CCCCCCCC(=O)O[C@H](COC(=O)CCCCCCCCCCCCCCCCC)COP(=O)([O-])OCC[N+](C)(C)C [stearyol oleoyl PC, stearyoyl oleoyl phosphatidylcholine] | 8 to 13
CCCCC/C=C\C/C=C\CCCCCCCC(=O)OC[C@H](COP(=O)(O)OCCN)OC(=O)CCCCCCC/C=C\C/C=C\CCCCC [dilinoleoyl phosphoethanolamine] | −40
CCCCCCCCCCCCCCCCCC(=O)OC[C@H](COP(=O)(O)OC[C@H](N)C(=O)O)OC(=O)CCCCCCCCCCCCCCCCC [distereoyl PS] | 68
CCCCCCCC/C=C\CCCCCCCC(=O)OC[C@H](COP(=O)(O)O)OC(=O)CCCCCCC/C=C\CCCCCCCC [dioleoyl PA] | −8
CCCCCCCCCCCCCCCCCC(=O)OC[C@H](COP(=O)(O)O)OC(=O)CCCCCCCCCCCCCCCCC [distereoyl PA] | 75
CCCCCCCC/C=C\CCCCCCCC(=O)O[C@H](COC(=O)CCCCCCCCCCCCCCC)COP(=O)([O-])OCC[N+](C)(C)C [POPC, palmitoyloleoyl phosphatidylcholine] | −2
CCCCCCCC/C=C\CCCCCCCC(=O)OC[C@H](COP(=O)([O-])OCC[N+](C)(C)C)OC(=O)CCCCCCCCCCCCCCC [oleoyl palmitoyl PC, oleolyl palmitoyl phosphatidylcholine] | −9
CCCCCCCC/C=C\CCCCCCCC(=O)OC[C@H](COP(=O)(O)OCC(O)CO)OC(=O)CCCCCCC/C=C\CCCCCCCC (some centres unmarked) [DOPG, dioleoyl phosphatidylglycerol] | −18
CCCCCCCC/C=C\CCCCCCCC(=O)OC[C@H](COP(=O)(O)OC[C@H](N)C(=O)O)OC(=O)CCCCCCC/C=C\CCCCCCCC [dioleoyl PS] | −11

Same assay, conditions: hydrated lipid; listed as palmitoyl oleoyl PC

Tm, phase transition temperature [°C] | Compound
−5 to 3 | CCCCCCCC/C=C\CCCCCCCC(=O)O[C@H](COC(=O)CCCCCCCCCCCCCCC)COP(=O)([O-])OCC[N+](C)(C)C [POPC, palmitoyloleoyl phosphatidylcholine]

Conditions: not given

water solubility (in words) | Compound | aqueous solubility [µg/mL]
very low water solubility | Nc1nc(Nc2ccc(S(N)(=O)=O)cc2)nn1C(=O)c1c(F)cccc1F [1-(2′,6′-difluorobenzoyl)-5-amino-3-(4′-aminosulfonylanilino)-1,2,4-triazole] | 
 | COc1cc([C@@H]2c3cc4c(cc3[C@@H](O[C@@H]3O[C@@H]5CO[C@@H](C)O[C@H]5[C@H](O)[C@H]3O)[C@H]3COC(=O)[C@H]23)OCO4)cc(OC)c1O [etopside, reference compound] | 30 (≈ 51 µM)

Conditions: not given
Remark: another data set of the same source

Compound | LogP
CCC/C=C/C=C/C(=O)O[C@H]1/C(=C/C(=O)OC)C[C@H]2C[C@H]([C@@H](C)O)OC(=O)C[C@H](O)C[C@@H]3C[C@H](OC(C)=O)C(C)(C)[C@](O)(C[C@@H]4C/C(=C/C(=O)OC)C[C@H](/C=C/C(C)(C)[C@]1(O)O2)O4)O3 [bryostatin-1] | 5.4
O=c1[nH]cc(F)c(=O)[nH]1 [fluorouracil] | −0.8

The remaining lines, values ahead:

LogP | Compound
around zero | Nc1nc(Nc2ccc(S(N)(=O)=O)cc2)nn1C(=O)c1c(F)cccc1F [1-(2′,6′-difluorobenzoyl)-5-amino-3-(4′-aminosulfonylanilino)-1,2,4-triazole]
6.6 | CC(=O)O[C@@]12CO[C@@H]1C[C@H](O)[C@@]1(C)C(=O)[C@H](O)C3=C(C)[C@@H](OC(=O)[C@H](O)[C@@H](NC(=O)OC(C)(C)C)c4ccccc4)C[C@@](O)([C@@H](OC(=O)c4ccccc4)[C@H]21)C3(C)C [docetaxel]
1.8 | C[C@]12C[C@H](O)[C@H]3[C@@H](CCC4=CC(=O)CC[C@@]43C)[C@@H]1CC[C@@H]2C(=O)CO [corticosterone]
1.9 | C[C@H]1C[C@H]2[C@@H]3CCC4=CC(=O)C=C[C@]4(C)[C@@]3(F)[C@@H](O)C[C@]2(C)[C@@]1(O)C(=O)CO [betamethasone]
6.1 | CN(C)CC/C=C1/c2ccccc2Sc2ccc(Cl)cc21 [chlorprothixene]
7.4 | CC(=O)O[C@H]1C(=O)[C@@]2(C)[C@H]([C@H](OC(=O)c3ccccc3)[C@]3(O)C[C@H](OC(=O)[C@H](O)[C@@H](NC(=O)c4ccccc4)c4ccccc4)C(C)=C1C3(C)C)[C@]1(OC(C)=O)CO[C@@H]1C[C@@H]2O [paclitaxel]
